Experimental data from paper PMC10819430, “Binding Affinity and Mechanism of Six PFAS with Human Serum Albumin: Insights from Multi-Spectroscopy, DFT and Molecular Dynamics Approaches” (Toxics, 2024).
Where two headings read alike, the source gives them in different places.

Assays:
[1] = human body, cited from earlier work
HSA [2] = target: T1, HSA (Homo sapiens, UniProt P02768); assay: Competitive probe experiment (warfarin, ibuprofen, lidocaine); assay type: binding
T1 construct: HSA (≥96%) and six PFAS were all purchased from Aladdin Chemicals (Shanghai, China); purchased Aladdin Chemicals (Shanghai, China)
Text: Competitive probe experiments are commonly used to identify specific binding sites in the structure of proteins. Three probe molecules known to bind to distinct binding sites on HSA were selected: warfarin (subdomain IIA), ibuprofen (subdomain IIIA), and lidocaine (subdomain IIB). These probe molecules would compete with PFAS for the same protein sites when binding with HSA. The potential binding sites can be inferred by monitoring and comparing changes in fluorescence intensity when probe molecules are present.

HSA [3] = target: T1, HSA; assay: Circular dichroism (CD) spectrum, secondary structure of HSA; conditions: HSA:PFAS 1:18, 298 K
Text: CD measurements (190–260 nm) were taken before and after the addition of PFAS to HSA using a J-815 CD spectrometer equipped with a PMT detector (JASCO, Tokyo, Japan). The protein concentration was set at 1 × 10^−6 mol/L, with a fixed HSA-to-PFAS concentration ratio of 1:18. The scanning rate was set to 100 nm/min with 0.5 nm increments, and the photometric mode of HT. Each sample was scanned three times. The blank buffer control was automatically subtracted during the scanning process. All tests were carried out at 298 K. The CONTIN analysis method from the DichroWeb was employed to determine the contents of the protein’s secondary structure.

[4] = target: T2, Human Serum Albumin (HSA) (Homo sapiens, UniProt P02768); assay: Fluorescence quenching of HSA by PFAS (Stern–Volmer, double logarithmic and Van't Hoff analysis); assay type: binding
T2 construct: HSA (≥96%) and six PFAS were all purchased from Aladdin Chemicals (Shanghai, China); purchased Aladdin Chemicals (Shanghai, China)
Protocol: Fluorescence quenching experiments greatly benefit studies on the interactions between ligands and proteins. Initially, 3 mL of HSA stock solution was put into a 10 mm square quartz cuvette. Following that, PFAS stock solution was gradually added to achieve various final concentrations, namely 0, 3, 6, 9, 12, 15, 18 × 10^−6 mol·L^−1. By incrementally increasing the molar ratio of PFAS vs. HSA up to 18, their binding characteristics can be better investigated.
A thermostat (TR-01A, Bishui Corp, Beijing, China) was used to precisely control the solution temperature, which was set at 298, 304, and 310 K. This device includes a temperature controller and a metal heating cuvette module in conjunction with a fluorometer. This thermostat has a temperature range of 20–60 °C (293–333 K) and an accuracy of 0.1 °C Celsius. This step is critical for keeping the experimental conditions stable. Following that, the samples were fluorescence-scanned with a fluorometer (Cary Eclipse, Agilent, CA, USA). The excitation wavelength was set at 275 nm to efficiently stimulate tryptophan (Trp) and tyrosine (Tyr) residues. Additional test parameters include an emission of 275–500 nm, scanning rate of 1200 nm/min and PTV voltage of 700 v. Fluorescence quenching experiments were repeated three times, and the average values were taken for further calculation.
Fluorescence internal filtration (IFE) refers to the phenomenon where the fluorescence intensity decreases during fluorescence measurement due to the absorption of excitation or emission light by sample components (small molecules or proteins) in solution [19, 20]. This phenomenon is more obvious in the samples with a high concentration of adsorbent. A fluorescence correction formula was used in this study to correct the IFE effect on the data, as follows: Fcorr=Fobs×10^Aex+Aem/2 where Fcorr and Fobs are corrected and observed fluorescence emission intensities, respectively, Aex and Aem are UV-vis absorbances at the excitation and emission wavelengths.
The quenching constant can be calculated using the Stern–Volmer Equation (3). The results are shown in Table 2 and Figure 1: F0/F=1+Kqτ0=1+KsvQ where F0 and F refer to HSA fluorescence intensities without and with the quencher (PFAS solution); Kq is the biomacromolecule’s quenching rate constant; τ0 is the average fluorescence lifetime of the fluorescent molecule when the quencher PFAS is absent, usually taken as 10^−8 s; [Q] is the PFAS concentration; Ksv is the Stern–Volmer quenching constant; F0/F is the vertical axis; the Stern–Volmer curves of this system are 298, 304, and 310 K.
The double logarithmic formula can be used to calculate the binding constants and binding site numbers of HSA–PFAS complexes: logF0−F/F=logKb+nlogQ where F0 and F are parameters representing the initial fluorescence intensity and the fluorescence intensity after adding PFAS, respectively. The binding characteristics are represented by the binding constant, Kb, and the number of binding sites, n. The slope of the straight line is the number of binding sites, n, and the binding constant Kb is obtained from the exponent of the straight line’s intercept using the double logarithmic graph. Figure A2 and Table 2 show the calculation results.
The enthalpy change (∆H), entropy change (∆S), and free energy change (∆G) calculated from the Van’t Hoff equation [50] can be used to determine the type of interaction. lnKb=−ΔH/RT+ΔS/R ΔG=ΔH−TΔS=−RTlnKb where R represents the ideal gas constant (8.314 J·mol^−1·K^−1).

HSA [5] = target: T1, HSA; assay: 3D-EEM fluorescence spectra of HSA–PFAS; conditions: HSA 1 × 10^−6, PFAS 1.8 × 10^−5 mol·L^−1
Protocol: The 3D-EEM spectra were recorded using specific scanning parameters at the scanning rate of 2400 nm·min^−1, an […] with 5 nm increments, and an emission of 280–550 nm with 2 nm increments. The concentrations of PFAS and HSA were set at 18 × 10^−6 mol·L^−1 and 1 × 10^−6 mol·L^−1, respectively.

T1 sequence (P02768 25-609): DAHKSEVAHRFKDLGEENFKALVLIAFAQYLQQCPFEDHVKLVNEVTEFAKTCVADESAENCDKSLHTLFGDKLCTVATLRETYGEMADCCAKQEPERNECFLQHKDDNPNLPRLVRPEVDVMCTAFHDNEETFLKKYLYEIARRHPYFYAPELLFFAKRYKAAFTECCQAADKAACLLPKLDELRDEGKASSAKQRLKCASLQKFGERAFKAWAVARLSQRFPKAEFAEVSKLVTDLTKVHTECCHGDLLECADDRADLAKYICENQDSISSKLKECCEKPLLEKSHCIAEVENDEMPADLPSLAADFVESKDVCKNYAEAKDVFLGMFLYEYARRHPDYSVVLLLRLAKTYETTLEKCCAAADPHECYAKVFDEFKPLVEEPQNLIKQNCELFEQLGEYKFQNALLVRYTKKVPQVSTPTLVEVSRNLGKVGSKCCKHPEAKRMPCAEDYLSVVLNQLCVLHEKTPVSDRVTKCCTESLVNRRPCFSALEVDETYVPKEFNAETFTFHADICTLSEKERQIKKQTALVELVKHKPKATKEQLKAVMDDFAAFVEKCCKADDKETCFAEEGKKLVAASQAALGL
T2 sequence (P02768 25-609): as above

SMILES: O=C(O)C(F)(F)C(F)(F)C(F)(F)C(F)(F)C(F)(F)C(F)(F)C(F)(F)F [PFOA, Perfluorooctanoic Acid]
- average half-life ([1]; study on 19 PFAS): approximately 2.47 years
- average half-life [1]: 3.8 years
- φ (rate of decrease in Kb) (HSA [2]; lidocaine probe): 8.1%
- φ (rate of decrease in Kb) (HSA [2]; warfarin probe): 96.1%
- HSA secondary structure: β-Sheet (HSA [3]; HSA alone 4.9): 6.4%
- HSA secondary structure: β-Turn (HSA [3]; HSA alone 16.9): 15.8%
- HSA secondary structure: Random Coil (HSA [3]; HSA alone 36.7): 40.5%
- HSA secondary structure: α-Helix (HSA [3]; HSA alone 41.6): 37.2%
- fluorescence quenching mechanism [4]: mixed quenching
- Kq (quenching rate constant) ([4]; 298 K): 1.39e+12 L/mol/s
- quenching of HSA fluorescence intensity ([4]; PFAS 1.8 × 10^−5 mol·L^−1, HSA 1 × 10^−6 mol·L^−1, 298 K): 20.1%
- KSV (Stern–Volmer quenching constant) ([4]; T = 298 K): 1.39 ± 0.07 × 10^4 L·mol^−1
- n (number of binding sites) ([4]; T = 298 K): 1.26 ± 0.04
- ΔG ([4]; T = 298 K): -7.302 kcal/mol
- Kq (quenching rate constant) ([4]; T = 298 K, τ0 taken as 10^−8 s): 1.39 ± 0.07 × 10^12 L·mol^−1·s^−1
- KSV (Stern–Volmer quenching constant) ([4]; T = 304 K): 1.46 ± 0.09 × 10^4 L·mol^−1
- n (number of binding sites) ([4]; T = 304 K): 1.31 ± 0.02
- ΔG ([4]; T = 304 K): -7.851 kcal/mol
- Kq (quenching rate constant) ([4]; T = 304 K, τ0 taken as 10^−8 s): 1.46 ± 0.09 × 10^12 L·mol^−1·s^−1
- KSV (Stern–Volmer quenching constant) ([4]; T = 310 K): 1.47 ± 0.11 × 10^4 L·mol^−1
- n (number of binding sites) ([4]; T = 310 K): 1.47 ± 0.03
- ΔG ([4]; T = 310 K): -9.003 kcal/mol
- Kq (quenching rate constant) ([4]; T = 310 K, τ0 taken as 10^−8 s): 1.47 ± 0.11 × 10^12 L·mol^−1·s^−1
- ΔH ([4]; Van't Hoff, 298–310 K): 35.057 ± 1.53 kcal/mol
- ΔS ([4]; Van't Hoff, 298–310 K): 593.3 ± 22.7 J·mol^−1·K^−1
- HSA fluorescence peak position after PFAS addition (blue shift from 337 nm) ([4]; as the concentration of PFAS increases): 320 nm
- affinity for HSA ([4]; fluorescence quenching experiments): high affinity
- main interaction force from thermodynamic analysis ([4]; signs of ΔH and ΔS): hydrophobic interactions
- 3D-EEM Peak A Position λex/λem (HSA [5]): 280/336
- 3D-EEM Peak B Position λex/λem (HSA [5]): 230/327
- 3D-EEM Peak A Intensity F (HSA [5]; HSA alone 673.66): 476.59 a.u.
- 3D-EEM Peak B Intensity F (HSA [5]; HSA alone 996.906): 812.58 a.u.
